Some test systems named below: MOLT-4 leukemia; OVCAR-3 ovarian; UACC-62 melanoma; HCT-116 colon; PC-3 prostate; SN12C renal; DU-145 prostate; MDA-MB-435; SW-620 colon; KM12 colon.
What all share (test): NCI tumour cell line growth inhibition, 48 h

This note sets out measurements from PubChem BioAssay (NCI).

Values joined by “and” are separate entries in the source; they are usually repeats but may differ in a detail not shown here. Identical values can stand only once.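 The compound was tested at five concentrations on cells cultured in 96-well plates, with a 48-hour exposure period. Abbreviation: GI50, concentration required for 50% inhibition of growth. TGI: concentration producing complete growth inhibition.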 A value given as a limit tells only on which side of the number the result lay.

Regarding `C=C1CC2(OC1=O)C(=O)N(CCCCCCCN1C(=O)C3(CC(=C)C(=O)O3)c3ccccc31)c1ccccc12` (stereo unspecified), the GI50 in the test with MOLT-4 leukemia is 0.267 µM; in the test on OVCAR-3 ovarian it was 1.27 µM; in the test on UACC-62 melanoma, 1.27 µM; in the test with HCT-116 colon it was 1.49 µM; with PC-3 prostate, 1.53 µM; with SN12C renal, 1.08 µM. Besides, the GI50 is 2.89 µM with DU-145 prostate, 1.29 µM with MDA-MB-435, 0.938 µM with SW-620 colon and 3.39 µM in the test with KM12 colon. Moreover, the TGI is 5.53 µM in the test on MOLT-4 leukemia; 4.07 µM with OVCAR-3 ovarian; 4.82 µM with UACC-62 melanoma; 5.07 µM in the test with HCT-116 colon; 6.58 µM with PC-3 prostate; 2.72 µM with SN12C renal. For the same compound, the TGI was 9.49 µM in the test with DU-145 prostate, 3.92 µM in the test with MDA-MB-435, 2.21 µM with SW-620 colon and 11.6 µM with KM12 colon.
Turning to `C[C@@H]1C[C@@H](O)[C@]2(O)O[C@@H]3C[C@@]4(C=O)[C@@H](CC[C@@H]5[C@@H]4CC[C@]4(C)[C@@H](C6=CC(=O)OC6)CC[C@]54O)C[C@H]3O[C@@H]2O1`, the GI50 in the test on MOLT-4 leukemia is 0.00699 µM and 0.005 µM; in the test on OVCAR-3 ovarian, 0.0241 µM; with UACC-62 melanoma it was 0.0515 µM and 0.0216 µM; in the test with HCT-116 colon, 0.0197 µM; in the test on SN12C renal it was 0.005 µM; in the test with SW-620 colon it was 0.0525 µM and 0.0111 µM. Besides, in the test with KM12 colon, the GI50 was 0.0722 µM and 0.0346 µM. Moreover, the TGI was 0.0465 µM and 0.213 µM and 0.0895 µM in the test with UACC-62 melanoma; 0.0532 µM and 0.122 µM in the test with HCT-116 colon; 0.518 µM with PC-3 prostate; 0.0897 µM and 0.144 µM and 0.0759 µM with SN12C renal; 0.111 µM in the test on DU-145 prostate; 0.157 µM in the test with MDA-MB-435. Also, the TGI was 0.0591 µM and 0.221 µM and 0.164 µM in the test with SW-620 colon; 0.476 µM and 0.217 µM and 0.608 µM with KM12 colon.
On to `CCN(CC)CCOc1nc2ccc(OC)cc2c2c1-c1ccc(OC)cc1C2=O`, for which the GI50 in the test with MOLT-4 leukemia is 0.283 µM; with OVCAR-3 ovarian it was 0.872 µM; with UACC-62 melanoma, 2.76 µM; in the test with HCT-116 colon, 0.368 µM; in the test on PC-3 prostate, 1.3 µM; with SN12C renal, 0.531 µM. The GI50 with DU-145 prostate was 0.626 µM; in the test on MDA-MB-435, 0.69 µM; with SW-620 colon, 0.253 µM; with KM12 colon, 0.519 µM. Besides, the TGI with MOLT-4 leukemia was 1.85 µM; with OVCAR-3 ovarian it was 2.15 µM; in the test with UACC-62 melanoma, 7.65 µM; in the test on HCT-116 colon, 1.64 µM; with PC-3 prostate, 2.91 µM; in the test with SN12C renal, 2.06 µM. Besides, the TGI with DU-145 prostate worked out at 1.88 µM; with MDA-MB-435, 2.09 µM; with SW-620 colon, 1.61 µM; in the test on KM12 colon, 1.77 µM.
On to `Cc1ccc(-[n+]2c3cc(N)c(C)cc3nc3cc(C)c(Nc4ccccc4)cc32)cc1`, for which the GI50 with MOLT-4 leukemia is 0.244 µM; in the test on UACC-62 melanoma it was 0.236 µM; in the test on PC-3 prostate, 0.174 µM; with DU-145 prostate, 0.0534 µM; in the test on MDA-MB-435, 0.0814 µM; with SW-620 colon, 0.0708 µM. For the same compound, in the test with KM12 colon, the GI50 was 0.0767 µM. Also, the TGI in the test with MOLT-4 leukemia was found to be 1.69 µM; in the test with UACC-62 melanoma it was 0.979 µM; in the test on PC-3 prostate it was 1.77 µM; in the test with DU-145 prostate, 1.08 µM; with MDA-MB-435 it was 0.358 µM; in the test on SW-620 colon, 1.08 µM. This compound returned a TGI in the test on KM12 colon of 0.3 µM.
Consider `CCOC(=O)c1c2c(n3ccc(NC(=O)CCN4CCCC4)cc13)C(=O)c1ncccc1C2=O`, for which the GI50 was 1.52 µM in the test on MOLT-4 leukemia; 1.48 µM with OVCAR-3 ovarian; 1.39 µM with UACC-62 melanoma; 0.175 µM with HCT-116 colon; 1.31 µM in the test with PC-3 prostate; 1.43 µM in the test with SN12C renal. The values for the GI50 in the test with DU-145 prostate, in the test with MDA-MB-435 and with KM12 colon were 1.46 µM, 1.53 µM and 1.52 µM, respectively. Also, the TGI with MOLT-4 leukemia stood at 4.81 µM; with OVCAR-3 ovarian, 3.12 µM; with UACC-62 melanoma, 3.22 µM; with HCT-116 colon it was 1.94 µM; with PC-3 prostate, 2.88 µM; in the test on SN12C renal, 3.47 µM. Moreover, the TGI was determined as 2.96 µM in the test with DU-145 prostate, 3.08 µM in the test on MDA-MB-435 and 3.32 µM with KM12 colon.
Consider `O=C(NNc1nc(Cl)nc(N2CCN(C(c3ccccc3)c3ccccc3)CC2)n1)c1ccccc1`, for which the GI50 is 1.66 µM in the test on MOLT-4 leukemia; 1.65 µM with OVCAR-3 ovarian; 1.72 µM in the test on UACC-62 melanoma; 1.62 µM in the test with HCT-116 colon; 1.83 µM with PC-3 prostate; 1.72 µM in the test on SN12C renal. In addition, the values for the GI50 in the test on DU-145 prostate, in the test with MDA-MB-435 and in the test on KM12 colon were 2.15 µM, 1.75 µM and 4.76 µM, respectively. Further, the TGI in the test with MOLT-4 leukemia amounted to 5.13 µM; in the test with OVCAR-3 ovarian, 3.13 µM; with UACC-62 melanoma it was 3.29 µM; in the test with HCT-116 colon, 3.06 µM; in the test with PC-3 prostate it was 3.81 µM; in the test with SN12C renal, 3.17 µM. For the same compound, the values for the TGI in the test on DU-145 prostate, with MDA-MB-435 and with KM12 colon were 4.53 µM, 3.21 µM and over 100 µM, respectively.
Take `O=C(Oc1ccc(Cl)cc1Cl)c1ccccc1Nc1ccnc(C(F)(F)F)c1`: the GI50 in the test with MOLT-4 leukemia is over 100 µM; in the test with OVCAR-3 ovarian, 11 µM; in the test on UACC-62 melanoma it was 2.29 µM; with PC-3 prostate it was 8.24 µM; in the test with SN12C renal, 3.01 µM; in the test with DU-145 prostate, 15.7 µM. Moreover, the GI50 was 2.91 µM in the test with MDA-MB-435, 4.59 µM with SW-620 colon and 3.69 µM with KM12 colon. The TGI in the test with MOLT-4 leukemia is over 100 µM; with OVCAR-3 ovarian, 24.9 µM; with UACC-62 melanoma, 7.06 µM; in the test with PC-3 prostate, 25.5 µM; in the test on SN12C renal, 7.63 µM; with DU-145 prostate, 30.6 µM. The TGI in the test with MDA-MB-435 was 8.1 µM; in the test with SW-620 colon it was 32.5 µM; in the test with KM12 colon it was 21.1 µM.
Take `CCOc1cc2ncc(C#N)c(Nc3ccc(OCc4cccc(F)c4)c(Cl)c3)c2cc1NC(=O)CC1CCSS1` (stereo unspecified): the GI50 was 1.09 µM in the test with OVCAR-3 ovarian; over 25 µM with UACC-62 melanoma; 0.431 µM with HCT-116 colon; 0.801 µM with PC-3 prostate; over 6.3 µM with SN12C renal; 0.561 µM in the test with DU-145 prostate. Besides, the GI50 with MDA-MB-435 is 0.596 µM; in the test on SW-620 colon, over 25 µM; with KM12 colon, 0.49 µM. The TGI in the test on OVCAR-3 ovarian was 9.3 µM; in the test on UACC-62 melanoma it was over 25 µM; with HCT-116 colon, 1.07 µM; with PC-3 prostate it was 5.91 µM; in the test on SN12C renal, over 25 µM; with DU-145 prostate, 1.36 µM. For the same compound, the TGI in the test with MDA-MB-435 was 1.52 µM; with SW-620 colon, over 25 µM; with KM12 colon, 1.12 µM.
